This passage reports binding and Kd results from PMC11991097 (2025).

Usually Kd stands for a measure of binding affinity in units of concentration.

Test [1] concerns Del-1 (DNA, aptamer) ACCGACCGTGCTGGACTCTAAGGTGGAGTTATAGGCTTACTGCCACGTCAGTATGAGCGAGCGTTGCG
Kind of test: magnetic bead elution; AuNP/PDDA colorimetry. Conditions: 50 μg/mL (beads), 2 μg/mL (colorimetry, MOPS); elution much lower than Del; ΔA650/A520 about 0.4.

For test [2] the test system is unchanged. Briefly: magnetic bead elution, ssDNA absorbance, nonlinear fit. Conditions: PBS screening buffer; room temperature, 2 h; Del fixed 50 μg/mL, aptamer varied 50–500 nM; capture strand P displaced.

As for `CC1(C)C(C(=O)OC(C#N)c2cccc(Oc3ccccc3)c2)C1(C)C` (stereo not drawn), the binding entry in test [1] is listed as “weak”.
On the same count and under the same terms, the value for `CC1(C)C(C=C(Cl)Cl)C1C(=O)OC(C#N)c1cccc(Oc2ccccc2)c1` (stereo not drawn) was “weak”.
The molecule `CC1(C)[C@H](C(=O)O[C@H](C#N)c2cccc(Oc3ccccc3)c2)[C@@H]1C=C(Br)Br` showed a Kd in test [2] of 82.90 ± 6.272 nM.
